According to publication PMC11489721 (Communications Chemistry, 2024):
Counter-ions that a name gives are not always drawn. Like-named read-outs stand apart in the source and are kept apart here.

Columns and labels:
[1] = biological target: T1, heterodimeric receptor (T1R2/T1R3), TMD2 binding site (Homo sapiens, UniProt Q7RTX0+Q8TE23); assay: Competition binding with [3H]-Perillartine as radioligand; conditions: for Competitive inhibition with perillartine: radioligand [3H]-Perillartine; for Ki (mM): radiolabeled ligand perillartine, TMD2 binding, Table 6
T1 sequence (Q8TE23 20-839): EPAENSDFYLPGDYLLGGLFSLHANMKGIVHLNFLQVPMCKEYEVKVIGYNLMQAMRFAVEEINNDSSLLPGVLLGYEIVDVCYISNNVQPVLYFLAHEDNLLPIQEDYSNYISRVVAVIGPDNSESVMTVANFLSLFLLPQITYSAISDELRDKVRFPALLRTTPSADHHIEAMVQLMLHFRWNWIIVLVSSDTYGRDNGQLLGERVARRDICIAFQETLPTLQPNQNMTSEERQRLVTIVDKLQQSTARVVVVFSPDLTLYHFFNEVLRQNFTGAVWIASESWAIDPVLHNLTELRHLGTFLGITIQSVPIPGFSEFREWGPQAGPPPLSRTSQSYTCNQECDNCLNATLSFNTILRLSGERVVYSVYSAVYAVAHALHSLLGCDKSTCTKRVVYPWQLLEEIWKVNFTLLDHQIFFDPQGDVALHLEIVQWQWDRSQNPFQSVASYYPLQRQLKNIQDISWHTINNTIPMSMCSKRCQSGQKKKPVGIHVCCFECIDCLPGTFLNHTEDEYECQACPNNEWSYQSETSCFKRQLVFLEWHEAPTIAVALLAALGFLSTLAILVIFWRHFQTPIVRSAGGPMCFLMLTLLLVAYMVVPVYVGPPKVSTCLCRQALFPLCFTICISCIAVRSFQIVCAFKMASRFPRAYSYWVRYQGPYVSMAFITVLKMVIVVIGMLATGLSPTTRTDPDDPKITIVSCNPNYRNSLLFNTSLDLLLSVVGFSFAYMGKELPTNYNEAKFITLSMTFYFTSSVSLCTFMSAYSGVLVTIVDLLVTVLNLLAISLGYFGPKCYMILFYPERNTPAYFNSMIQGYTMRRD
T1 sequence (Q7RTX0 21-852): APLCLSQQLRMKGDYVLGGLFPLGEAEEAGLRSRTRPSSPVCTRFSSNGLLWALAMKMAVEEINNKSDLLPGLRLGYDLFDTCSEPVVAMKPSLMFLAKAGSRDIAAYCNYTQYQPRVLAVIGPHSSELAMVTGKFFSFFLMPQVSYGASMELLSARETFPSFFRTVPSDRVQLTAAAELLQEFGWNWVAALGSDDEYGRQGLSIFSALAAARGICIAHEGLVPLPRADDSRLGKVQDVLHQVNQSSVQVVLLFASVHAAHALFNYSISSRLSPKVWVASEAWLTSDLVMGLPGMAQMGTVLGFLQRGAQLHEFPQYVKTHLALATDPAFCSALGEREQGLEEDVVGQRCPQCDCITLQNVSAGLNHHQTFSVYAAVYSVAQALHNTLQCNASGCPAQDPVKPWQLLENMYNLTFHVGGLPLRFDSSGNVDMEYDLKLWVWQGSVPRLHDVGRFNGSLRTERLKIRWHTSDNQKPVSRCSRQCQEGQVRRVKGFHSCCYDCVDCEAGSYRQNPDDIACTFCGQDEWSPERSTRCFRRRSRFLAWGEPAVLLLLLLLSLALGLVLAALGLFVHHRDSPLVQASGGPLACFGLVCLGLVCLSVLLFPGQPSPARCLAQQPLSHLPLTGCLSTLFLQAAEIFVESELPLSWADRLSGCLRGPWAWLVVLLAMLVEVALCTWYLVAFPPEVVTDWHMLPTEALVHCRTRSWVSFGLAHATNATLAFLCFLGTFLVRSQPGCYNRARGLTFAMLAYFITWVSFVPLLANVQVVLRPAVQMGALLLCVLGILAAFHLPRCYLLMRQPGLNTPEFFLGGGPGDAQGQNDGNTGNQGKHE

[2] = biological target: T2, heterodimeric receptor (T1R2/T1R3), TMD3 binding site (Homo sapiens, UniProt Q7RTX0+Q8TE23); assay: Competition binding with [3H]-lactisole as radioligand; conditions: for Competitive inhibition with lactisole: radioligand [3H]-lactisole
T2 sequence (Q8TE23 20-839): T1 sequence (Q8TE23 20-839)
T2 sequence (Q7RTX0 21-852): T1 sequence (Q7RTX0 21-852)

[3] = system: human T1R2/T1R3 heterodimers; conditions: transiently transfected, fluorescent calcium biosensor; cited from earlier work
[4] = biological target: T3, heterodimeric receptor (T1R2/T1R3), presumed VFD2 binding site (Homo sapiens, UniProt Q7RTX0+Q8TE23); assay: Competition binding with [3H]-Rebaudioside B as radioligand; conditions: for Competitive inhibition with RebB: radioligand [3H]-Rebaudioside B; for Ki (mM): radiolabeled ligand RebB, VFD2 binding, Table 5
T3 sequence (Q8TE23 20-839): T1 sequence (Q8TE23 20-839)
T3 sequence (Q7RTX0 21-852): T1 sequence (Q7RTX0 21-852)

[5] = biological target: extracellular amino-terminal domain (ATD) of human T1R2; conditions: circular dichroism; cited from earlier work
[6] = biological target: human T1R2; conditions: human T1R2, intrinsic fluorescence; cited from earlier work
[7] = biological target: human T1R2/T1R3 sweet taste receptor; conditions: HEK293 stably expressing T1R2/T1R3, FLIPR calcium mobilization; cited from earlier work
[8] = biological target: T4, heterodimeric receptor (T1R2/T1R3) (Homo sapiens, UniProt Q7RTX0+Q8TE23); assay: Effect of GTP and GDP on radioligand binding; conditions: for Inhibition of [3H]-Lactisole binding: radioligand [3H]-lactisole
T4 sequence (Q8TE23 20-839): T1 sequence (Q8TE23 20-839)
T4 sequence (Q7RTX0 21-852): T1 sequence (Q7RTX0 21-852)

[9] = biological target: human sweet taste receptor; conditions: DMR assay; cited from earlier work
[10] = cited from earlier work
[11] = biological target: human sweet taste receptor; conditions: FLIPR assay; cited from earlier work
[12] = biological target: T5, human T1R2/T1R3 heterodimer sweet taste receptors (Homo sapiens, UniProt Q7RTX0+Q8TE23); assay: FLOWER label-free binding to stabilized receptor on microtoroid
T5 sequence (Q8TE23 20-839): T1 sequence (Q8TE23 20-839)
T5 sequence (Q7RTX0 21-852): T1 sequence (Q7RTX0 21-852)

[13] = biological target: T6, heterodimeric receptor (T1R2/T1R3), VFD2 and VFD3 (Homo sapiens, UniProt Q7RTX0+Q8TE23); assay: Kinetic binding of [14C]-sucrose, taste bud cell membranes
T6 sequence (Q8TE23 20-839): T1 sequence (Q8TE23 20-839)
T6 sequence (Q7RTX0 21-852): T1 sequence (Q7RTX0 21-852)

[14] = system: bovine taste bud cells; conditions: cited from earlier work
[15] = biological target: T7, heterodimeric receptor (T1R2/T1R3), TMD2 site (Homo sapiens, UniProt Q7RTX0+Q8TE23); assay: Kinetic binding of [3H]-Perillartine, taste bud cell membranes
T7 sequence (Q8TE23 20-839): T1 sequence (Q8TE23 20-839)
T7 sequence (Q7RTX0 21-852): T1 sequence (Q7RTX0 21-852)

[16] = biological target: T8, heterodimeric receptor (T1R2/T1R3), presumed VFD2 site (Homo sapiens, UniProt Q7RTX0+Q8TE23); assay: Kinetic binding of [3H]-Rebaudioside B, taste bud cell membranes
T8 sequence (Q8TE23 20-839): T1 sequence (Q8TE23 20-839)
T8 sequence (Q7RTX0 21-852): T1 sequence (Q7RTX0 21-852)

[17] = read-out: binding constant Kd, TMD3 open (+C20), 10 µM C20
[18] = read-out: binding constant Kd, TMD3 open (No C20)
[19] = from kinetic binding, ratio koff/kon

CC1=CC(=O)NS(=O)(=O)O1 [AceK, Acesulfame K]
Competitive inhibition with perillartine [1]: high levels of inhibition
Competitive inhibition with lactisole [2]: do not compete
EC50 [3]: 213 µM
Competitive inhibition with RebB [4]: inhibited
Kd [5]: 100 µM
Kd [6]: 164 µM
EC50 [7]: 125 µM

N=C(N)NC(=O)c1nc(Cl)c(N)nc1N [Amiloride, amiloride HCL]
Ki (mM) [1]: Ambiguous
Competitive inhibition with perillartine [1]: did not show inhibition
Ki [4]: 1350 µM
Competitive inhibition with RebB [4]: positive inhibition

Nc1nc2c(ncn2[C@@H]2O[C@H](COP(=O)(O)OP(=O)(O)O)[C@@H](O)[C@H]2O)c(=O)[nH]1 [GDP, guanosine diphosphate]
Inhibition of [3H]-Lactisole binding [8]: No inhibition
IC50 ([8]; read-out: IC50, inhibition of Rebaudioside B binding, radioligand [3H]-Rebaudioside B): 2150 µM

Nc1nc2c(ncn2[C@@H]2O[C@H](COP(=O)(O)OP(=O)(O)OP(=O)(O)O)[C@@H](O)[C@H]2O)c(=O)[nH]1 [GTP, guanosine triphosphate]
IC50 ([8]; IC50, inhibition of Rebaudioside B binding, radioligand [3H]-Rebaudioside B): 9220 µM
IC50 ([8]; IC50, inhibition of perillartine binding, radioligand [3H]-Perillartine): 13200 µM
Inhibition of [3H]-Lactisole binding [8]: No inhibition

C=C(C)[C@@H]1CC=C(/C=N/O)CC1 [Perillartine]
EC50 [3]: 2.54 µM
Kd [6]: 373 µM
EC50 [7]: 1.45 µM

C=C1C[C@@]23CC[C@H]4[C@@](C)(CCC[C@@]4(C)C(=O)O[C@@H]4O[C@H](CO)[C@@H](O)[C@H](O)[C@H]4O)[C@@H]2CC[C@]1(O[C@@H]1O[C@H](CO)[C@@H](O)[C@H](O[C@@H]2O[C@H](CO)[C@@H](O)[C@H](O)[C@H]2O)[C@H]1O[C@@H]1O[C@H](CO)[C@@H](O)[C@H](O)[C@H]1O)C3 [RebA]
EC50 [9]: 57 µM
Sweetness at 300 ppm [10]: 5.90
EC50 [11]: 29 µM
EC50 [7]: 14.4 µM

C=C1C[C@@]23CC[C@H]4[C@@](C)(CCC[C@@]4(C)C(=O)O[C@@H]4O[C@H](CO)[C@@H](O)[C@H](O)[C@H]4O[C@@H]4O[C@H](CO)[C@@H](O)[C@H](O)[C@H]4O)[C@@H]2CC[C@]1(O[C@@H]1O[C@H](CO)[C@@H](O)[C@H](O[C@@H]2O[C@H](CO)[C@@H](O)[C@H](O)[C@H]2O)[C@H]1O[C@@H]1O[C@H](CO)[C@@H](O)[C@H](O)[C@H]1O)C3 [RebD, Rebaudioside D]
Sweetness at 300 ppm [10]: 6.15
Hill slope nH ([12]; TMD3 open (No C20)): 0.22
Kd [12, 17]: 0.046 nM
Kd [12, 18]: 2.8 nM

C=C1C[C@@]23CC[C@H]4[C@@](C)(CCC[C@@]4(C)C(=O)O[C@@H]4O[C@H](CO)[C@@H](O)[C@H](O[C@@H]5O[C@H](CO)[C@@H](O)[C@H](O)[C@H]5O)[C@H]4O[C@@H]4O[C@H](CO)[C@@H](O)[C@H](O)[C@H]4O)[C@@H]2CC[C@]1(O[C@@H]1O[C@H](CO)[C@@H](O)[C@H](O[C@@H]2O[C@H](CO)[C@@H](O)[C@H](O)[C@H]2O)[C@H]1O[C@@H]1O[C@H](CO)[C@@H](O)[C@H](O)[C@H]1O)C3 [RebM, Rebaudioside M]
Ki (mM) [1]: Ambiguous
Ki ([2]; radiolabeled ligand lactisole, TMD3 binding, Table 4): 11800 µM
Competitive inhibition with lactisole [2]: positive inhibition
Ki (mM) [4]: Ambiguous
Competitive inhibition with RebB [4]: ambiguous binding inhibition
Sweetness at 300 ppm [10]: 6.55
EC50 [7]: 29.5 µM
Hill slope nH ([12]; TMD2 open (+C20)): 0.75
Hill slope nH ([12]; TMD2 open (No C20)): 0.30
Hill slope nH ([12]; TMD3 open (No C20)): 0.55
Kd ([12]; read-out: binding constant Kd, TMD2 open (+C20), 10 µM C20): 0.28 nM
Kd [12, 17]: 2.6 nM
Kd [12, 18]: 22 nM

C=C1C[C@@]23CC[C@H]4[C@@](C)(CCC[C@@]4(C)C(=O)O[C@@H]4O[C@H](CO)[C@@H](O)[C@H](O)[C@H]4O)[C@@H]2CC[C@]1(O[C@@H]1O[C@H](CO)[C@@H](O)[C@H](O)[C@H]1O)C3 [Rubu, Rubusoside]
Sweetness at 300 ppm [10]: 3.87
Hill slope nH ([12]; TMD2 open (No C20)): 0.36
Hill slope nH ([12]; TMD3 open (No C20)): 0.20
Kd ([12]; binding constant Kd, TMD2 open (No C20)): 2400 nM
Kd ([12]; binding constant Kd, TMD3 open (+C20), 10 µM C20): 26 nM
Kd ([12]; binding constant Kd, TMD3 open (No C20)): 3000 nM

CC(C)Oc1ccc(NC(=S)NCc2ccc[nH]2)cc1 [S819, 1-((1H-pyrrol-2-yl)methyl)-3-(4-isopropoxyphenyl)thiourea]
EC50 [9]: 0.7 µM
Ki (mM) [1]: Ambiguous
Competitive inhibition with perillartine [1]: did not show inhibition
Competitive inhibition with lactisole [2]: do not compete
Ki (mM) [4]: Ambiguous
Competitive inhibition with RebB [4]: did not show strong inhibition
EC50 [11]: 0.07 µM

OC[C@H]1O[C@@](CO)(O[C@H]2O[C@H](CO)[C@@H](O)[C@H](O)[C@H]2O)[C@@H](O)[C@@H]1O [[^14C]-sucrose, [^14C]-Sucrose]
kon ([13]; [14C]-sucrose radioligand): 0.251 M⁻¹ s⁻¹
koff ([13]; dissociation by excess cold sucrose at 60 min): 0.003105 s⁻¹
Kd [13, 19]: 12300 µM

OC[C@H]1OC(O)[C@H](O)[C@@H](O)[C@@H]1O (some centres unmarked) [glucose]
Kd [14]: 3400 µM

OC[C@H]1O[C@@](CO)(O[C@H]2O[C@H](CO)[C@@H](O)[C@H](O)[C@H]2O)[C@@H](O)[C@@H]1O [sucrose]
Kd [14]: 1100 µM

Rebaudioside B [RebB]
Sweetness at 300 ppm [10]: 5.20

[^3H]-Perillartine [[^3H]-Perrilartine]
kon ([15]; [3H]-Perillartine radioligand): 3071.47 M⁻¹ s⁻¹
koff ([15]; dissociation by excess cold Perillartine at 60 min): 0.008895 s⁻¹
Kd [15, 19]: 2.9 µM

[^3H]-Rebaudioside B
kon ([16]; [3H]-Rebaudioside B radioligand, room temperature): 1.53 M⁻¹ s⁻¹
koff ([16]; dissociation by 1000-fold excess cold Rebaudioside B at 60 min): 0.008868 s⁻¹
Kd [16, 19]: 5800 µM
